US10874659B2, “Iloperidone metabolite for use in the treatment of psychiatric disorders” (Vanda Pharmaceuticals, Inc., priority 2012, dated 2020)

Assay: Conversion of (R)-P88 and (S)-P88 to iloperidone in human liver S9 fraction in the presence of NAD and NADP
Format: in vitro ADME
Conditions: 13 concentrations 1 to 100 μM, initial rate conditions
Protocol: The aim of this study was to evaluate the potential conversion of (R)-P88 and (S)-P88 to iloperidone in human liver S9 fraction in the presence of NAD and NADP. A copy of the final report from this study, entitled, “InVitro Metabolism of (R)-P88 and (S)-P88 in Human Liver S9 Fraction,” (“Final Report”) is attached.
Three concentrations of (R)-P88 and (S)-P88 (1, 10 and 100 μM) were incubated with human liver S9 fractions in the presence of NAD and NADP. Under initial rate conditions, 13 concentrations of (R)-P88 and (S)-P88 (1 to 100 μM) were incubated with human liver S9 fractions to determine the Michaelis-Menten enzyme kinetic constants, Km and Vmax, for the formation of iloperidone.

SMILES | Enzyme kinetic behaviour of the conversion to iloperidone (plot shape / best-fit model)
COc1cc([C@H](C)O)ccc1OCCCN1CCC(c2noc3cc(F)ccc23)CC1 [S-P88] | best fit a biphasic saturation enzyme model
COc1cc([C@@H](C)O)ccc1OCCCN1CCC(c2noc3cc(F)ccc23)CC1 [R-P88] | slightly S-shaped direct plot and “hook”-shaped Eadie-Hofstee plot suggesting allosteric interactions
